Data published in ChEMBL document CHEMBL1201862, “PubChem BioAssay data set” (2004).
Calls of active or inactive are those of the source.

Key:
[1] = NIH-3T3 fibroblast cytotoxicity, dose response, cytotoxicity control, cell-based, fluorescence, Alamar Blue, secondary assay (AID 2327); assay type: functional;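 further: NIH-3T3 mouse fibroblasts cultured with fluconazole at 8 µg/mL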
[2] = C. albicans growth with fluconazole, confirmation, fluorescence, retest (AID 2467); assay type: functional, cell-based
Exodeoxyribonuclease V = biological target: T1, Exodeoxyribonuclease V (Escherichia coli (strain K12), UniProt P04993+P07648+P08394); assay: E. coli RecBCD inhibitors, dose response, counter-screen for AddAB inhibitor project, absorbance, V66 E. coli, mutant T4 phage (AID 492957); assay type: functional, cell-based, Escherichia coli str. K-12 substr. MG1655
T1 sequence (P04993 whole entry): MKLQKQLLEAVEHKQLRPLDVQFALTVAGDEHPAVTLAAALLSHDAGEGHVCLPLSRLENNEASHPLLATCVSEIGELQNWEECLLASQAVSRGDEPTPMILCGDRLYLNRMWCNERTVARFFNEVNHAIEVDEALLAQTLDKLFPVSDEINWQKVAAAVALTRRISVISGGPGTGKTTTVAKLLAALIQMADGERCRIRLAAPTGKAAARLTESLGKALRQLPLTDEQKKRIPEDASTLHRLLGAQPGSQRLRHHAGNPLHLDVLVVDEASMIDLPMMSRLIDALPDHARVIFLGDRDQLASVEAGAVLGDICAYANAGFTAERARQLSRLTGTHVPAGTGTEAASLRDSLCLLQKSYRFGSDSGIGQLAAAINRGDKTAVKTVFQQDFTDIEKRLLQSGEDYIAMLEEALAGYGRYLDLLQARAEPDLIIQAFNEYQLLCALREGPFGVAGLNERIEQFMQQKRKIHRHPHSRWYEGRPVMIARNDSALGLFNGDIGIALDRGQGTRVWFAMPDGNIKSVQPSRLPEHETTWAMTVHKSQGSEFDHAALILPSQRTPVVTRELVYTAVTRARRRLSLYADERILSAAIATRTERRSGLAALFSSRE
T1 sequence (P07648 whole entry): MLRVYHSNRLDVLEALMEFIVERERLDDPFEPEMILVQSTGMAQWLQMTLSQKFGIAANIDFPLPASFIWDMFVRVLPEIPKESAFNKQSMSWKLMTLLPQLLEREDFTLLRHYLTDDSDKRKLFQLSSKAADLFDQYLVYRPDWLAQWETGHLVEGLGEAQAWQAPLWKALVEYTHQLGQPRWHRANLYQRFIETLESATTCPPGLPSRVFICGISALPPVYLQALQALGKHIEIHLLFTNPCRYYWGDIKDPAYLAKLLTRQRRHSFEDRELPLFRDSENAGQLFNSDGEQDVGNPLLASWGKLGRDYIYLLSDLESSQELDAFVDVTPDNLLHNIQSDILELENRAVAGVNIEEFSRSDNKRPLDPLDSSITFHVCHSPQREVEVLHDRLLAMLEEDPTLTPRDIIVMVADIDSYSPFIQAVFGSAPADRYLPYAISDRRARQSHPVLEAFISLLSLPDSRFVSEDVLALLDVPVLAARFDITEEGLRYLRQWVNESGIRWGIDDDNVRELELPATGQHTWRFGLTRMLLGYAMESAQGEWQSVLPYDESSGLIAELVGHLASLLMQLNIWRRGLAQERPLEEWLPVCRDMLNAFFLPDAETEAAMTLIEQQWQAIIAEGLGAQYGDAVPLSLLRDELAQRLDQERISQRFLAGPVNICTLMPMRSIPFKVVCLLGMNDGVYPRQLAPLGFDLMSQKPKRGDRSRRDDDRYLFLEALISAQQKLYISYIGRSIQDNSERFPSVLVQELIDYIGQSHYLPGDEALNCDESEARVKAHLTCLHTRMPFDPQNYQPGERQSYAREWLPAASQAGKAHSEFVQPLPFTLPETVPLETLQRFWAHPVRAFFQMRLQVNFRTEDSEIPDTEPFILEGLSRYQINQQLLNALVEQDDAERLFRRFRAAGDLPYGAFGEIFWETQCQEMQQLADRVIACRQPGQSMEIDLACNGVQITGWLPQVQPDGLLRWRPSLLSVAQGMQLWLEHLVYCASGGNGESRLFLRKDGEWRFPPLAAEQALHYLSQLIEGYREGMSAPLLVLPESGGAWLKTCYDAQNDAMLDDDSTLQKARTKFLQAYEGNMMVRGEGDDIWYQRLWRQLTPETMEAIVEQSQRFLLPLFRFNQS
T1 sequence (P08394 whole entry): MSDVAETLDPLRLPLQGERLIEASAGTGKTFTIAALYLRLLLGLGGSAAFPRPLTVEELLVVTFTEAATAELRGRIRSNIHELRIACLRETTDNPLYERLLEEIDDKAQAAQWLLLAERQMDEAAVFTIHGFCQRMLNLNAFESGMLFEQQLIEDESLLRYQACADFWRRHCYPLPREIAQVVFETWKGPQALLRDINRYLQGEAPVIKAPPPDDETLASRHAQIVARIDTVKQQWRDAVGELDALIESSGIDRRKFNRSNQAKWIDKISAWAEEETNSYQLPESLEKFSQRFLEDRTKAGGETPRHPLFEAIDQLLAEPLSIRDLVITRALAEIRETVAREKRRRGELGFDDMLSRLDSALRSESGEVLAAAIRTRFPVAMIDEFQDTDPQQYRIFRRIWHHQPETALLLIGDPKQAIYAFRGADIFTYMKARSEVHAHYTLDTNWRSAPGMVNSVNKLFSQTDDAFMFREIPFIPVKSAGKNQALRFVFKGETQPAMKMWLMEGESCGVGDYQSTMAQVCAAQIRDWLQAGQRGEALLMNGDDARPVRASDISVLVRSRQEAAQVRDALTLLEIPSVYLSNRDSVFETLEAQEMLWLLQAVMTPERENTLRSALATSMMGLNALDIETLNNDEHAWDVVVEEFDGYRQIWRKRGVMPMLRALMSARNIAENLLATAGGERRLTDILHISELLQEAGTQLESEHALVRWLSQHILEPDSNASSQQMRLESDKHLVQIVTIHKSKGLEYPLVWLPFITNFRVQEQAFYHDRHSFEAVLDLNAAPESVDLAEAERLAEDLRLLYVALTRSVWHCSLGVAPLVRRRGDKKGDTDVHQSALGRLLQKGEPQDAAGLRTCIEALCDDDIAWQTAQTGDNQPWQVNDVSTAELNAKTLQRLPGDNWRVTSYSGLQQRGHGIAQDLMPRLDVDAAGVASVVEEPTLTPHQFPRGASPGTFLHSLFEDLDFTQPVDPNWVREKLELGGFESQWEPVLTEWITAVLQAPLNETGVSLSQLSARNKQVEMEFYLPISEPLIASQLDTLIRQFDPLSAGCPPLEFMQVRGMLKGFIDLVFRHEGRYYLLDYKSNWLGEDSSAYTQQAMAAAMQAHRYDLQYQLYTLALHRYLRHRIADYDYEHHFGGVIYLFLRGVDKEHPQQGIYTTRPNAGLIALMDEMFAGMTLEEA

[3] = Luminescence Cell-Based Dose Retest to Confirm Inhibitors of Cancer Stem Cells. [Related pubchem assays (depositor defined):AID2717, AID2721]; assay type: functional; conditions: Homo sapiens
[4] = Counterscreen for AddAB inhibitors: absorbance-based bacterial cell-based high throughput dose response assay for inhibitors of bacterial viability. [Related pubchem assays (depositor defined):AID435030, AID449728, AID449731, AID488942, AID488955, AID488956]; assay type: functional
[5] = biological target: Intestinal-type alkaline phosphatase (Mus musculus, UniProt P24822); assay: PubChem AID 488874; assay type: functional
Chain of Intestinal-type alkaline phosphatase (Mus musculus, UniProt P24822) (P24822 whole entry): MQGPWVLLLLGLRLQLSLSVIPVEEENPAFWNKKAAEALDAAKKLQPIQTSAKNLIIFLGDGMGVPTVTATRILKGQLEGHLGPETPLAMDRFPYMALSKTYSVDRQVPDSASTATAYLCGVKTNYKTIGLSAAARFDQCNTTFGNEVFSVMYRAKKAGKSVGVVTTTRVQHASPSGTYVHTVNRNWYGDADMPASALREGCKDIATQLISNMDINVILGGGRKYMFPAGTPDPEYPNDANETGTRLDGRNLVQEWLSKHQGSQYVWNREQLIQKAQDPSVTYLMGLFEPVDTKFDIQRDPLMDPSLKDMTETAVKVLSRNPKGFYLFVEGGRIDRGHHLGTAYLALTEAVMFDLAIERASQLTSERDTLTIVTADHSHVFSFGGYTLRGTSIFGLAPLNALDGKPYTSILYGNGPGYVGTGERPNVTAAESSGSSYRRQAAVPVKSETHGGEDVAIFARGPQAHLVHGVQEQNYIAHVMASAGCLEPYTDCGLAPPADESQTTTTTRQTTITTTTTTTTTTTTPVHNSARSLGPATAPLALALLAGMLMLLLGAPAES

[6] = biological target: T2, Intestinal-type alkaline phosphatase (Homo sapiens, UniProt P09923); assay: human intestinal alkaline phosphatase activators, dose response, biochemical, luminescence, uHTS hits (AID 463120); assay type: functional
T2 sequence (P09923 whole entry): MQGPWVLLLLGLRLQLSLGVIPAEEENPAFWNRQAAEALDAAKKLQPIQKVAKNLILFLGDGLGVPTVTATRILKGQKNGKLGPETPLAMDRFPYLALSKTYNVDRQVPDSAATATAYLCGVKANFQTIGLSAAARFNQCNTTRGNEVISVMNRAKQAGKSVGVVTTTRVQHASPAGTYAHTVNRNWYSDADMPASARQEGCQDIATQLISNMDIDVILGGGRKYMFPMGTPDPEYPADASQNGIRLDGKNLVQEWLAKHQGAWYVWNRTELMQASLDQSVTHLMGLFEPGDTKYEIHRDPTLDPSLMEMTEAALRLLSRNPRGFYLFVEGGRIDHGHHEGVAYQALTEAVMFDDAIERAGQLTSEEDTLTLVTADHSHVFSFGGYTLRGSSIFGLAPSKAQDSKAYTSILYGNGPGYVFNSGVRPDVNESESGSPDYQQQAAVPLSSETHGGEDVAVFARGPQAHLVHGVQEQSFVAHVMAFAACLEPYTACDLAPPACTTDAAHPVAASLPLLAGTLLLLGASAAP

[7] = biological target: T2, Intestinal-type alkaline phosphatase; assay: human IAP activators, dose response, biochemical, luminescent, uHTS hits, set 2 (AID 488817); assay type: functional;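 further: potency of activators that raise enzyme activity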
[8] = biological target: T3, Alkaline phosphatase, tissue-nonspecific isozyme (Homo sapiens, UniProt P05186); assay: TNAP enzyme activators, dose response, selectivity assay for human IAP activator project, biochemical, TNAP isozyme, human IAP uHTS hits (AID 488886); assay type: functional;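 further: potency of compounds raising TNAP activity as a selectivity check on IAP activators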
T3 sequence (P05186 whole entry): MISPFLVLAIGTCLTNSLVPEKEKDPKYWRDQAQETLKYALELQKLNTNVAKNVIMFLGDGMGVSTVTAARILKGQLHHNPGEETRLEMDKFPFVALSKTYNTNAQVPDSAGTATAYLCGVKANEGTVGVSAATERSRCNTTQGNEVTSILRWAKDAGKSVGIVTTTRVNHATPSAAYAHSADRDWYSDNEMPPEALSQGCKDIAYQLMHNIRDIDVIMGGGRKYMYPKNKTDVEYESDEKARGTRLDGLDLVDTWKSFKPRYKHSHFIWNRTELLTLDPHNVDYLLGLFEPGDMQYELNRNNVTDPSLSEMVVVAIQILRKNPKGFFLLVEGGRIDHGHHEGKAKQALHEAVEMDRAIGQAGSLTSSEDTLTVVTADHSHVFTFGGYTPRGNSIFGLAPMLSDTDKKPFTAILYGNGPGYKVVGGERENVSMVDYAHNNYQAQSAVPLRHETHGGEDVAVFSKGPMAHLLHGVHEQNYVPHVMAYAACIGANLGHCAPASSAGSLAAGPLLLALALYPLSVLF

Albumin = Albumin (Bos taurus, UniProt P02769); assay: Counterscreen for inhibitors of T-cell receptor (TCR)-CD3 interaction: Fluorescence-based biochemical high throughput dose response assay to identify inhibitors of T-cell receptor (TCR)-CD3 interaction using a TAMRA-labeled BSA probe.; assay type: functional
Chain of Albumin (P02769 whole entry, the tested form may be a part): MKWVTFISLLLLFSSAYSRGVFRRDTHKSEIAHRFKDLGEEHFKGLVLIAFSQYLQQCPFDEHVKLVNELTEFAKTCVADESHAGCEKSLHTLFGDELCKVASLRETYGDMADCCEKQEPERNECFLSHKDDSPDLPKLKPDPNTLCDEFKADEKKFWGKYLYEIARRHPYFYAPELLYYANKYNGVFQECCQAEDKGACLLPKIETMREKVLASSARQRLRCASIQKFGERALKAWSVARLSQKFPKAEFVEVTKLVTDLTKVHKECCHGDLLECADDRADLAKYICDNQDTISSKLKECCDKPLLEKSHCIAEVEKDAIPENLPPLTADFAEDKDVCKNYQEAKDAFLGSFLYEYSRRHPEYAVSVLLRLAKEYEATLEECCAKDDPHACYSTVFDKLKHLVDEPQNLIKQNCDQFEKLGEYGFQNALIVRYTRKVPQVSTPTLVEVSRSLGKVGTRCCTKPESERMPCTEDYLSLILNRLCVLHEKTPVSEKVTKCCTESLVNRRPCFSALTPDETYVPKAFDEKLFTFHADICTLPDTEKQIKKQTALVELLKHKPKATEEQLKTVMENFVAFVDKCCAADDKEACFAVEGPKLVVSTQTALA

[9] = biological target: T4, RNA-binding protein pos-1 (Caenorhabditis elegans, UniProt G5EF15); assay: inhibitors of POS-1/mex-3 RNA binding, dose response, biochemical, fluorescence polarization (AID 1964);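 further: purified POS-1 fused to maltose binding protein made in E. coli; potency of compounds blocking POS-1 binding to fluorescent RNA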
T4 sequence (G5EF15 whole entry): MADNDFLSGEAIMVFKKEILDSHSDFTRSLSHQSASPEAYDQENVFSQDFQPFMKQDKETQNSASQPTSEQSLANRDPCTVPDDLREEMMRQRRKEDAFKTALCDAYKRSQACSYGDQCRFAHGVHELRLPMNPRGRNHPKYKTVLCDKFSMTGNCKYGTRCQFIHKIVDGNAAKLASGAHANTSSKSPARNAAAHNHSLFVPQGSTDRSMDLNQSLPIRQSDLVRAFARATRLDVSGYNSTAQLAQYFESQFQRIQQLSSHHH

[10] = biological target: T5, Zinc finger protein mex-5 (Caenorhabditis elegans, UniProt Q9XUB2); assay: MEX-5/TCR-2 RNA interaction inhibitors, dose response, biochemical, C. elegans, fluorescence polarization (AID 1960)
T5 sequence (Q9XUB2 whole entry): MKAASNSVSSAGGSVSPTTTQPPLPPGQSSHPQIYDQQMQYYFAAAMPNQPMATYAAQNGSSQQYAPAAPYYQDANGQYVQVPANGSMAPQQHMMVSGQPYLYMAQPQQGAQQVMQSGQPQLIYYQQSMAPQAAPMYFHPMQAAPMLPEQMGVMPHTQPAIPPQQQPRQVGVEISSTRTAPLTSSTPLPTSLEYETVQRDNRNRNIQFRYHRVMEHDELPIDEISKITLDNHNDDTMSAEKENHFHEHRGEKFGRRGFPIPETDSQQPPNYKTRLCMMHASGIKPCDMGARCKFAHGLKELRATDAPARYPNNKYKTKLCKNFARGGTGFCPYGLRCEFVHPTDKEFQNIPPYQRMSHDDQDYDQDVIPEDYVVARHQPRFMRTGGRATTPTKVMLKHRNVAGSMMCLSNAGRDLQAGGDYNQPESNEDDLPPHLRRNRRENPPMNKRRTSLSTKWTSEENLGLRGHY

[11] = biological target: T6, Mannose-6-phosphate isomerase (Homo sapiens, UniProt P34949); assay: PMI enzyme inhibitors, confirmation, biochemical, fluorescence intensity (AID 1535)
T6 sequence (P34949 whole entry): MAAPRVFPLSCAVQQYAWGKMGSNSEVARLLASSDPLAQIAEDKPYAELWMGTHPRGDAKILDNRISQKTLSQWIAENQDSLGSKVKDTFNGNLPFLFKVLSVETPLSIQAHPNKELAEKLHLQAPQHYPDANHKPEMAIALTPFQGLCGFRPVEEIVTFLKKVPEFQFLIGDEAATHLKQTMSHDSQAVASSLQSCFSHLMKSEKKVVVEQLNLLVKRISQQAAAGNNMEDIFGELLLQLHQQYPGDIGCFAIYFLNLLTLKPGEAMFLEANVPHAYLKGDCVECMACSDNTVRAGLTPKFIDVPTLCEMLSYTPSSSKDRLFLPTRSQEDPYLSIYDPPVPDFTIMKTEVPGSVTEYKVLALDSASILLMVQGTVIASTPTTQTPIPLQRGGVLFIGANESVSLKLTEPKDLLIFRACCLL

Phosphomannomutase 2 = biological target: T7, Phosphomannomutase 2 (Homo sapiens, UniProt O15305); assay: Counter screen SAR assay for PMM2 inhibitors via a fluorescence intensity assay. [Related pubchem assays (depositor defined):AID1545, AID1574]
T7 sequence (O15305 whole entry): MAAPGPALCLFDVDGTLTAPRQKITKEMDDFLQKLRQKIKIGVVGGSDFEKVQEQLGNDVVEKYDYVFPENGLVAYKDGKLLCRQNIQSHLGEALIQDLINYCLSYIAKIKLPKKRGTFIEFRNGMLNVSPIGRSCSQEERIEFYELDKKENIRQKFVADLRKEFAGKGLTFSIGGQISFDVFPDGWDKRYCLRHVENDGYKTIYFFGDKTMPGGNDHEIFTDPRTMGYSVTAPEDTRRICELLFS
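Wherever AC50 is given: cells exposed to compound for roughly 70 hours or longer before luminescence read.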

SMILES	IC50 (Exodeoxyribonuclease V)	IC50 [4]	IC50 [5]	EC50 [6]	EC50 [7]	EC50 [8]	IC50 [11]	other results
O=C1c2ccccc2NC(c2ccc(-c3cccc(Cl)c3)o2)N1O (stereo unspecified)	> 119 µM (inactive)	> 119 µM (inactive)	–	–	–	–	–	EC50 [1]: 33.4 µM (active); EC50 [2]: 1.91 µM (active); AC50 [3]: 4.45 µM (active)
O=Nc1nc(O)c(/C=C(\O)c2ccccc2)nc1NO	–	–	35.5 µM (active)	8.21 µM (active)	8.77 µM (active)	> 100 µM (inactive)	–	IC50 (Albumin): > 94.2 µM (inactive)
Cc1nc2c3ccccc3nc(NNC(=O)CCC(=O)N3CCCC(C)C3)n2n1 (stereo unspecified)	–	–	64.2 µM (active)	8.07 µM (active)	10.7 µM (active)	12.2 µM (active)	–	EC50 [9]: > 300 µM (not active); EC50 [10]: 21 µM (active)
Clc1nss/c1=N\c1ccccn1	–	–	–	–	–	–	> 100 µM (inactive)	–
Cc1ccc(/N=c2\ssnc2Cl)cc1C	–	–	–	–	–	–	26.1 µM (active)	IC50 (Phosphomannomutase 2): 95.4 µM (active)
CCNc1c([N+](=O)[O-])c(=O)oc2ccccc12	> 119 µM (inactive)	> 119 µM (inactive)	–	–	–	–	–	–
